From patent publication US20090136578A1, “Pharmaceutical Composition Comprising Perindopril or Its Salts” (LEK Pharmaceutical d.d., priority 2005, published 2009)

Legend:
Format in all cases: physicochemical
[1] = Stress stability of binary mixture perindopril erbumine:Avicel 1:2, HPLC degradation products; settings: binary mixture with Avicel 1:2
Procedure: (§1) For the comparative tests, samples of perindopril erbumine with different particle size were mixed with some common pharmaceutically acceptable excipients in binary or ternary mixtures. Pharmaceutical compositions, particularly tablets, with perindopril erbumine having different particle size were prepared as well. Binary and ternary mixtures and tablets were exposed to the stress condition, e.g. 60° C. for 14 days or 40° C./75% relative humidity for 1 month. Degradation products of perindopril were determined using HPLC method as described in European Pharmacopea 5.0 (January 2005, monograph for Perindopril tert-butylamine—pages 2210-2212).
(§2) Samples of perindopril erbumine having large or small particles were mixed with microcrystalline cellulose (Avicel) into the binary mixtures having a ratio perindopril erbumine:Avicel=1:2. Binary mixtures were closed into vials and exposed to the stress condition of 60° C. for 14 days. Degradation products (impurities B and F) of perindopril were determined using HPLC method as described in European Pharmacopea 5.0 (p. 2210-2212).

[2] = Stress stability of ternary mixture perindopril erbumine:Avicel:Syloid 2:10:1, HPLC degradation products; settings: ternary mixture with Avicel and Syloid 2:10:1
Procedure: as §1, with “month.” for “month. Degradation products of perindopril were determined using HPLC method as described in European Pharmacopea 5.0 (January 2005, monograph for Perindopril tert-butylamine—pages 2210-2212).”
(§3) Samples of perindopril erbumine having large or small particles were mixed with microcrystalline cellulose (Avicel) and micronized silicon dioxide (Syloid) into the ternary mixtures having ratio perindopril erbumine:Avicel:Syloid=2:10:1. Ternary mixtures were exposed to the stress condition of 40° C./75% relative humidity for 1 month.

[3] = Stress stability of binary mixture perindopril erbumine:anhydrous lactose 1:2, HPLC degradation products; settings: binary mixture with anhydrous lactose 1:2
Procedure: as §1
as §2, with “anhydrous lactose” for “microcrystalline cellulose (Avicel)”, “erbumine:anhydrous lactose=1:2.” for “erbumine:Avicel=1:2.”

[4] = Stress stability of binary mixture perindopril erbumine:Aerosil 15:1, HPLC degradation products; settings: binary mixture with Aerosil 15:1
Procedure: as §1, with “month.” for “month. Degradation products of perindopril were determined using HPLC method as described in European Pharmacopea 5.0 (January 2005, monograph for Perindopril tert-butylamine—pages 2210-2212).”
Samples of perindopril erbumine having large or small particles were mixed with colloidal anhydrous silicon dioxide (Aerosil) into the binary mixtures having a ratio perindopril erbumine:Aerosil=15:1. Binary mixtures were closed into vials and exposed to the stress condition of 60° C. for 14 days.

[5] = Stress stability of tablets of Example 6, HPLC degradation products
Procedure: as §1, with “month.” for “month. Degradation products of perindopril were determined using HPLC method as described in European Pharmacopea 5.0 (January 2005, monograph for Perindopril tert-butylamine—pages 2210-2212).”
Samples of perindopril erbumine having large or small particles were mixed with selected pharmaceutical excipients in stated ratio:
Mixture was homogenized and pressed into the tablets. The amount of the perindopril erbumine in the tablets was defined by the mass of the tablet. Tablet could contain 2, 4 or 8 mg of perindopril erbumine.
Tablets were exposed to the stress condition of 60° C. for 14 days and 40° C./75% relative humidity for 1 month.

[6] = Stress stability of ternary mixture perindopril erbumine:anhydrous lactose:Syloid 2:10:1, HPLC degradation products; settings: ternary mixture with anhydrous lactose and Syloid 2:10:1
Procedure: as §1, with “month.” for “month. Degradation products of perindopril were determined using HPLC method as described in European Pharmacopea 5.0 (January 2005, monograph for Perindopril tert-butylamine—pages 2210-2212).”
as §3, with “anhydrous lactose” for “microcrystalline cellulose (Avicel)”, “erbumine:anhydrous lactose:Syloid=2:10:1.” for “erbumine:Avicel:Syloid=2:10:1.”

[7] = Comparative stress tests of perindopril erbumine of different particle size with excipients; settings: in comparison to perindopril erbumine having small particles; regardless of excipients or testing conditions
Procedure: During the development of the stable pharmaceutical composition of perindopril erbumine comparative tests were performed to investigate effects of various pharmaceutically acceptable excipients e.g. fillers, disintegrants and glidants, and different particle size of perindopril erbumine on the stability of perindopril erbumine.
as §1, with “month.” for “month. Degradation products of perindopril were determined using HPLC method as described in European Pharmacopea 5.0 (January 2005, monograph for Perindopril tert-butylamine—pages 2210-2212).”

Compound: CCC[C@H](N[C@@H](C)C(=O)N1[C@H](C(=O)O)C[C@@H]2CCCC[C@@H]21)C(=O)OCC [perindopril erbumine - large particles, perindopril erbumine]
- impurity B ([1]; 60° C., 14 days): <0.05%
- impurity F ([1]; 60° C., 14 days): 0.07%
- sum of impurities ([1]; 60° C., 14 days): 0.07%
- impurity B ([1]; beginning): <0.05%
- impurity F ([1]; beginning): <0.05%
- sum of impurities ([1]; beginning): <0.05%
- impurity B ([2]; 40° C./75% RH, 1 month): 0.05%
- impurity F ([2]; 40° C./75% RH, 1 month): 0.18%
- sum of impurities ([2]; 40° C./75% RH, 1 month): 0.29%
- impurity B ([2]; beginning): <0.05%
- impurity F ([2]; beginning): <0.05%
- sum of impurities ([2]; beginning): 0.11%
- impurity B ([3]; 60° C., 14 days): <0.05%
- impurity F ([3]; 60° C., 14 days): 0.13%
- sum of impurities ([3]; 60° C., 14 days): 0.13%
- impurity B ([3]; beginning): <0.05%
- impurity F ([3]; beginning): <0.05%
- sum of impurities ([3]; beginning): <0.05%
- impurity B ([4]; 60° C., 14 days): <0.05%
- impurity F ([4]; 60° C., 14 days): 0.08%
- sum of impurities ([4]; 60° C., 14 days): 0.08%
- impurity B ([4]; beginning): <0.05%
- impurity F ([4]; beginning): <0.05%
- sum of impurities ([4]; beginning): <0.05%
- impurity B ([5]; 40° C./75% RH, 1 month): 0.13%
- impurity F ([5]; 40° C./75% RH, 1 month): 0.28%
- sum of impurities ([5]; 40° C./75% RH, 1 month): 0.41%
- impurity B ([5]; 60° C., 14 days): 0.56%
- impurity F ([5]; 60° C., 14 days): 0.63%
- sum of impurities ([5]; 60° C., 14 days): 1.40%
- impurity B ([5]; beginning): <0.05%
- impurity F ([5]; beginning): 0.07%
- sum of impurities ([5]; beginning): 0.07%
- impurity B ([6]; 40° C./75% RH, 1 month): 1.09%
- impurity F ([6]; 40° C./75% RH, 1 month): 0.70%
- sum of impurities ([6]; 40° C./75% RH, 1 month): 1.92%
- impurity B ([6]; beginning): <0.05%
- impurity F ([6]; beginning): <0.05%
- sum of impurities ([6]; beginning): 0.10%
- degradation of perindopril erbumine [7]: smaller

Compound: CCC[C@H](N[C@@H](C)C(=O)N1[C@H](C(=O)O)C[C@@H]2CCCC[C@@H]21)C(=O)OCC [perindopril erbumine - small particles, perindopril erbumine]
- impurity B ([1]; 60° C., 14 days): <0.05%
- impurity F ([1]; 60° C., 14 days): 0.74%
- sum of impurities ([1]; 60° C., 14 days): 0.81%
- impurity B ([1]; beginning): <0.05%
- impurity F ([1]; beginning): <0.05%
- sum of impurities ([1]; beginning): <0.05%
- impurity B ([2]; 40° C./75% RH, 1 month): 0.14%
- impurity F ([2]; 40° C./75% RH, 1 month): 0.17%
- sum of impurities ([2]; 40° C./75% RH, 1 month): 0.36%
- impurity B ([2]; beginning): <0.05%
- impurity F ([2]; beginning): <0.05%
- sum of impurities ([2]; beginning): 0.11%
- impurity B ([3]; 60° C., 14 days): <0.05%
- impurity F ([3]; 60° C., 14 days): 0.77%
- sum of impurities ([3]; 60° C., 14 days): 0.88%
- impurity B ([3]; beginning): <0.05%
- impurity F ([3]; beginning): <0.05%
- sum of impurities ([3]; beginning): <0.05%
- impurity B ([4]; 60° C., 14 days): <0.05%
- impurity F ([4]; 60° C., 14 days): 0.80%
- sum of impurities ([4]; 60° C., 14 days): 0.80%
- impurity B ([4]; beginning): <0.05%
- impurity F ([4]; beginning): <0.05%
- sum of impurities ([4]; beginning): <0.05%
- impurity B ([5]; 40° C./75% RH, 1 month): 0.09%
- impurity F ([5]; 40° C./75% RH, 1 month): 0.51%
- sum of impurities ([5]; 40° C./75% RH, 1 month): 0.65%
- impurity B ([5]; 60° C., 14 days): 0.27%
- impurity F ([5]; 60° C., 14 days): 0.96%
- sum of impurities ([5]; 60° C., 14 days): 1.79%
- impurity B ([5]; beginning): <0.05%
- impurity F ([5]; beginning): <0.05%
- sum of impurities ([5]; beginning): 0.05%
- impurity B ([6]; 40° C./75% RH, 1 month): 1.24%
- impurity F ([6]; 40° C./75% RH, 1 month): 1.35%
- sum of impurities ([6]; 40° C./75% RH, 1 month): 2.75%
- impurity B ([6]; beginning): <0.05%
- impurity F ([6]; beginning): <0.05%
- sum of impurities ([6]; beginning): 0.10%
